How the values were obtained:
[1] = Luminescent data (absorption, emission, quantum yield, brightness) in solvents; type: physicochemical
Excerpt: Referring now to Table 1, there is shown luminescent data for Compounds 1 to 6.

[2] = Luminescence data for pairs of compounds absorbing at the same wavelength and emitting at different wavelengths; type: physicochemical; conditions: for ε × 10^3 (M^−1 cm^−1) at 355 nm / ε × 10^3 (M^−1 cm^−1) at 405 nm / ε × 10^3 (M^−1 cm^−1) at λMax / Absorption λMax / Emission λMax: solvent not given
Excerpt: Referring now to Tables 2 to 4, there is provided luminescence data for pairs of compounds which are capable of absorbing at the same wavelength and emitting at different wavelengths.

[3] = Solubility (statements in words); type: physicochemical
human liver = conditions: 45 min, 1 μg/ml
Experimental: All fluorophores were testing using donated human tissue which had been previously rejected for transplantation. All reagents were diluted in pre-warmed Dulbecos Modified Eagles Medium (DMEM) or CO2-independent media (both Invitrogen) to working concentrations and then perfused into pieces of liver for 45 min. Membrane and nuclear dyes were used simultaneously to visualise other cellular structures within the liver. Tissues were then imaged using multiphoton microscopy (825 nm). All fluorophores were used at 1 μg/ml (giving 0.1% of vehicle, being DMSO or THF). Testing of TpOx-2-Nap (green fluorophore) was done using DMSO as a solvent. […] was used for comparison, having been perfused through a separate piece of tissue from the same donor.

Huh-7 cells = conditions: 1 hr, Huh-7 cells labelled with CMFDA
Excerpt: To test the relative toxicity of tetrahydrofuran (THF) for liver cells, Huh-7 cells (hepatoma cell line used for a model of hepatocytes) were labelled with CMFDA (CellTracker Green, in DMSO, Invitrogen) and then treated with half log concentrations of THF (0.1%, 0.3%, 1%, 3%) for 1 hr. Cells were then imaged live using a Zeiss primovert fluorescence microscope.

[4] = Acetonitrile (ϵr 37.5, viscosity 0.38 cP)
[5] = Ethyl acetate (ϵr 6.0, viscosity 0.45 cP)
[6] = Octan-1-ol (ϵr 10.3, viscosity 7.36 cP)

Row | SMILES | Absorption λmax [1, 4] [nm] | Brightness [1, 4] [M⁻¹ cm⁻¹] | Emission λmax [1, 4] [nm] | pSS [1, 4] [cm^−1] | Φ [1, 4] | Absorption λmax [1, 5] [nm] | Brightness [1, 5] [M⁻¹ cm⁻¹] | Emission λmax [1, 5] [nm] | pSS [1, 5] [cm^−1] | Φ [1, 5] | Absorption λmax [1, 6] [nm] | Brightness [1, 6] [M⁻¹ cm⁻¹] | Emission λmax [1, 6] [nm] | pSS [1, 6] [cm^−1] | Φ [1, 6] | QY [2] | pSS (cm^−1) [2] [cm^−1] | pSS (nm) [2] [nm] | Absorption % Abs at 355 nm [2] [%] | Absorption % Abs at 405 nm [2] [%] | further results
1 | CCCCCOc1cc2c3cc(OCCCCC)c(OCCCCC)cc3c3c(cc(OCCCCC)c4oc(CCCC)nc43)c2cc1OCCCCC [Compound 1, 8-butyl-2,3,6,11,12-pentakis(pentyloxy)triphenyleno[1,2-d]oxazole] | 281 | 12 ± 2 | 367 | 8300 | 0.20 ± 0.02 | 281 | 29 ± 5 | 367 | 8300 | 0.18 ± 0.01 | 281 | 36 ± 7 | 367 | 8300 | 0.30 ± 0.03 | – | – | – | – | – | –
2 | CCCCCOc1cc2c3cc(OCCCCC)c(OCCCCC)cc3c3c(cc(OCCCCC)c4oc(-c5ccccc5)nc43)c2cc1OCCCCC [Compound 2, 2,3,6,11,12-pentakis(pentyloxy)-8-phenyltriphenyleno[1,2-d]oxazole] | 270 | 38 ± 4 | 492 | 16700 | 0.46 ± 0.04 | 270 | 51 ± 5 | 467 | 15600 | 0.46 ± 0.04 | 271 | 64 ± 6 | 473 | 15800 | 0.61 ± 0.06 | – | – | – | – | – | –
3 | CCCCCOc1cc2c3cc(OCCCCC)c(OCCCCC)cc3c3c(cc(OCCCCC)c4oc(-c5ccc6ccccc6c5)nc43)c2cc1OCCCCC [Compound 3, 8-(naphthalen-2-yl)-2,3,6,11,12-pentakis(pentyloxy)triphenyleno[1,2-d]oxazole] | 273 | 44 ± 4 | 524 | 17600 | 0.51 ± 0.05 | 272 | 92 ± 9 | 494 | 16500 | 0.55 ± 0.05 | 272 | 91 ± 9 | 497 | 16600 | 0.71 ± 0.07 | 0.55 | 16500 | 222 | 17 | 7 | ε × 10^3 (M^−1 cm^−1) at 355 nm [2]: 29 × 10^3 M^−1 cm^−1; ε × 10^3 (M^−1 cm^−1) at 405 nm [2]: 13 × 10^3 M^−1 cm^−1; ε × 10^3 (M^−1 cm^−1) at λMax [2]: 164 × 10^3 M^−1 cm^−1; Absorption λMax [2]: 272 nm; Emission λMax [2]: 494 nm; Solubility with DMSO as solvent ([3]; DMSO as a solvent, diluted in medium to 1 μg/ml): limited solubility; Uptake by hepatocytes (human liver): Diffuse green fluorescence (12) was observed within the cytoplasm of the hepatocytes
4 | CCCCCOc1cc2c3cc(OCCCCC)c(OCCCCC)cc3c3c(cc(OCCCCC)c4oc(-c5cccc6ccccc56)nc43)c2cc1OCCCCC [Compound 4, 8-(naphthalen-1-yl)-2,3,6,11,12-pentakis(pentyloxy)triphenyleno[1,2-d]oxazole] | 275 | 30 ± 3 | 543 | 18000 | 0.36 ± 0.04 | 275 | 56 ± 5 | 510 | 16800 | 0.48 ± 0.04 | 275 | 67 ± 7 | 515 | 17000 | 0.55 ± 0.05 | – | – | – | – | – | –
5 | CCCCCOc1cc2c3cc(OCCCCC)c(OCCCCC)cc3c3c(cc(OCCCCC)c4oc(-c5ccc6cc7ccccc7cc6c5)nc43)c2cc1OCCCCC [Compound 5, 8-(anthracen-2-yl)-2,3,6,11,12-pentakis(pentyloxy)triphenyleno[1,2-d]oxazole] | 270 | – | 592 | 20200 | 0.21 ± 0.02 | 272 | 53 ± 5 | 536 | 18100 | 0.51 ± 0.04 | 270 | 50 ± 5 | 526 | 18000 | 0.56 ± 0.05 | – | – | – | – | – | –
6 | CCCCCOc1cc2c3cc(OCCCCC)c(OCCCCC)cc3c3c(cc(OCCCCC)c4oc(-c5c6ccccc6cc6ccccc56)nc43)c2cc1OCCCCC [Compound 6, 8-(anthracen-9-yl)-2,3,6,11,12-pentakis(pentyloxy)triphenyleno[1,2-d]oxazole] | 253 | – | 630 | 23650 | – | 253 | – | 594 | 22700 | – | 255 | – | 384 | 13200 | – | – | – | – | – | – | –
7 | CCCCCOc1cc2c3cc(OCCCCC)c(OCCCCC)cc3c3c(cc(OCCCCC)c4oc(-c5ccc(C#N)cc5)nc43)c2cc1OCCCCC [Compound 12, 4-(2,3,6,11,12-pentakis(pentyloxy)triphenyleno[1,2-d]oxazol-8-yl)benzonitrile] | – | – | – | – | – | – | – | – | – | – | – | – | – | – | – | 0.32 | 18800 | 286 | 12 | 14 | ε × 10^3 (M^−1 cm^−1) at 355 nm [2]: 13 × 10^3 M^−1 cm^−1; ε × 10^3 (M^−1 cm^−1) at 405 nm [2]: 14 × 10^3 M^−1 cm^−1; ε × 10^3 (M^−1 cm^−1) at λMax [2]: 103 × 10^3 M^−1 cm^−1; Absorption λMax [2]: 272 nm; Emission λMax [2]: 558 nm
8 | CCCCCOc1cc2c3cc(OCCCCC)c(OCCCCC)cc3c3c(cc(OCCCCC)c4oc(-c5ccc(N(C)C)cc5)nc43)c2cc1OCCCCC [Compound 22, N,N-dimethyl-4-(2,3,6,11,12-pentakis(pentyloxy)triphenyleno[1,2-d]oxazol-8-yl)aniline] | – | – | – | – | – | – | – | – | – | – | – | – | – | – | – | 0.70 | 13150 | 150 | 54 | 2 | ε × 10^3 (M^−1 cm^−1) at 355 nm [2]: 39 × 10^3 M^−1 cm^−1; ε × 10^3 (M^−1 cm^−1) at 405 nm [2]: 1.5 × 10^3 M^−1 cm^−1; ε × 10^3 (M^−1 cm^−1) at λMax [2]: 72 × 10^3 M^−1 cm^−1; Absorption λMax [2]: 271 nm; Emission λMax [2]: 421 nm
9 | CCCCCOc1cc2c(cc1OCCOCCOCCOC)c1cc(OCCOCCOCCOC)c(OCCOCCOCCOC)cc1c1cc(OCCOCCOCCOC)c3oc(C)nc3c21 [Compound 32, 2,3,6,12-tetrakis(2-(2-(2-methoxyethoxy)ethoxy)ethoxy)-8-methyl-11-(pentyloxy)triphenyleno[1,2-d]oxazole] | – | – | – | – | – | – | – | – | – | – | – | – | – | – | – | – | – | – | – | – | Water solubility ([3]; water): water soluble
10 | CCCCCOc1cc2c3cc(OCCCCC)c(OCCCCC)cc3c3c(cc(OCCCCC)c4oc(-c5ccc(OC)cc5)nc43)c2cc1OCCCCC [Compound 45, 8-(4-methoxyphenyl)-2,3,6,11,12-pentakis(pentyloxy)triphenyleno[1,2-d]oxazole] | – | – | – | – | – | – | – | – | – | – | – | – | – | – | – | 0.40 | 14000 | 174 | 22 | 0 | ε × 10^3 (M^−1 cm^−1) at 355 nm [2]: 21 × 10^3 M^−1 cm^−1; ε × 10^3 (M^−1 cm^−1) at 405 nm [2]: 0 × 10^3 M^−1 cm^−1; ε × 10^3 (M^−1 cm^−1) at λMax [2]: 97 × 10^3 M^−1 cm^−1; Absorption λMax [2]: 270 nm; Emission λMax [2]: 444 nm
11 | C1CCOC1 [THF, tetrahydrofuran] | – | – | – | – | – | – | – | – | – | – | – | – | – | – | – | – | – | – | – | – | Toxicity for liver cells (cell culture compared to the reference) (Huh-7 cells; 0.1% and 0.3% THF): no differences in the cell culture compared to the reference; Toxicity for liver cells (dead cells) (Huh-7 cells; 1% and 3% THF): increasing number of dead cells

Source: US20220357332A1, “TRIPHENYLENE DERIVATIVES FOR USE IN IMAGING BIOLOGICAL TISSUE OR FLUID” (CHROMATWIST LIMITED, priority 2019, published 2022)
